For data set [1] the following is noted: water and alcohol; cited from earlier work.
A short description of data set [2]: Dissolution of phenylephrine sustained release coated beads. The format is physicochemical. As to conditions: when combined with Gauifenesin DC. How it is done:
Due to this effect the testing of the dissolution rate is achieved by first making a mock-up of the finished product. By doing so the suitability of the phenylephrine beads was determined more accurately. Direct specifications for dissolution were determined once data was collected to accurately predict this rate change.

Take `COc1ccccc1OCC(O)CO` (centres unmarked) [Guaifenesin, 3(2-methoxyphenoxy)-1,2-propanediol]: the solubility result in data set [1] is “soluble in water and alcohol”.

With `CNC[C@H](O)c1cccc(O)c1` [phenylephrine], in data set [2], the dissolution rate result was “accelerated”.

The values above are taken from patent publication US9522120B2, “Compositions and methods of making sustained release liquid formulations” (NEOS THERAPEUTICS, LP, priority 2005, dated 2016).
